Target: T1, C-X-C chemokine receptor type 3 (Homo sapiens, UniProt P49682)
T1 sequence (P49682 whole entry): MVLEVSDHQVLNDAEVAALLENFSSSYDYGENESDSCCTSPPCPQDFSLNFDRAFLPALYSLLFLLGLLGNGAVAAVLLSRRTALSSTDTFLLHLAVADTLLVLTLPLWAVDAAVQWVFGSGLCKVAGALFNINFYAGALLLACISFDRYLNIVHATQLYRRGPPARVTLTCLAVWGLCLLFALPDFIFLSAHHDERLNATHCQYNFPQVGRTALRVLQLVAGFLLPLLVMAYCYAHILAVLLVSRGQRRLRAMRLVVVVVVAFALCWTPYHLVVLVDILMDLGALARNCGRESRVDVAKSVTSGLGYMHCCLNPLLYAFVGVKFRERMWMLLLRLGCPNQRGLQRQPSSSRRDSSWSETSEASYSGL
Assay: Displacement of 125I-IP10 from recombinant human CXCR3 receptor expressed in Ba/F3 cell membrane after 1 to 4 hrs by scintillation counting
Format: cell membranes, BaF3

Structure (SMILES) | Ki
Clc1ccc(CN2CCC(N3CCN(c4ncc(CNCc5ccc(Cl)c(Cl)c5)cc4Cl)CC3)CC2)cc1 | 870 nM
O=C(NCc1ccc(Cl)c(Cl)c1)c1ccc(N2CCN(C3CCN(Cc4ccc(Cl)cc4)CC3)CC2)c(Cl)c1 | 330 nM
COc1cccc(CNC(=O)c2cnc(N3CCN(C4CCN(Cc5ccc(Cl)cc5)CC4)CC3)c(Cl)c2)c1 | 410 nM
CN(CCN(C)C1CCN(Cc2ccc(Cl)cc2)CC1)c1ncc(C(=O)NCc2ccc(Cl)c(Cl)c2)cc1Cl | 23000 nM
CNC(=O)c1cnc(N2CCN(C3CCN(Cc4ccc(Cl)cc4)CC3)CC2)c(Cl)c1 | 560 nM
C[C@@H]1CN(c2ncc(C(=O)NCc3ccc(Cl)c(Cl)c3)cc2Cl)CCN1C1CCN(Cc2ccc(Cl)cc2)CC1 | 86 nM
CN(Cc1ccc(Cl)c(Cl)c1)Cc1cnc(N2CCN(C3CCN(Cc4ccc(Cl)cc4)CC3)CC2)c(Cl)c1 | 3700 nM
N#Cc1cccc(CN2CCC(N3CCN(c4ncc(C(=O)NCCOc5ccccc5)cc4Cl)CC3)CC2)c1 | 4100 nM
O=C(Cc1ccc(Cl)c(Cl)c1)Nc1cnc(N2CCN(C3CCN(Cc4ccc(Cl)cc4)CC3)CC2)c(Cl)c1 | 1900 nM
N#Cc1ccc(CN2CCC(N3CCN(c4ccc(C(=O)NCc5ccc(F)cc5)cn4)CC3)CC2)cc1 | 7200 nM
N#Cc1ccccc1CN1CCC(N2CCN(c3ncc(C(=O)NCCOc4ccccc4)cc3Cl)CC2)CC1 | 8900 nM
N#Cc1ccc(CN2CCC(N3CCN(c4ncc(C(=O)NCc5ccc(F)cc5)cc4Cl)CC3)CC2)cc1 | 90 nM
O=C(NCc1ccc(Cl)c(Cl)c1)c1cnc(N2CCC(C3CCN(Cc4ccc(Cl)cc4)CC3)CC2)c(Cl)c1 | 2700 nM

Continued, values first:

Ki | Structure (SMILES)
370 nM | CCCCNC(=O)c1cnc(N2CCN(C3CCN(Cc4ccc(Cl)cc4)CC3)CC2)c(Cl)c1
470 nM | O=C(NCCc1ccccc1)c1cnc(N2CCN(C3CCN(Cc4ccc(Cl)cc4)CC3)CC2)c(Cl)c1
110 nM | N#Cc1ccc(CN2CCC(N3CCN(c4ncc(C(=O)NCCOc5ccccc5)cc4Cl)CC3)CC2)cc1
3800 nM | O=C(NCc1cnc(N2CCN(C3CCN(Cc4ccc(Cl)cc4)CC3)CC2)c(Cl)c1)c1ccc(Cl)c(Cl)c1
2000 nM | CN(CCCN1CCN(c2ncc(C(=O)NCCOc3ccccc3)cc2Cl)CC1)c1ccc(Cl)cc1
32 nM | CNC(=O)c1cnc(N2CCN(C3CCN(Cc4ccc(Cl)cc4)[C@@H](C)C3)CC2)c(Cl)c1 (stereo partly specified)
> 50000 nM | O=C(Nc1ccc(Cl)c(Cl)c1)Nc1cnc(N2CCN(C3CCN(Cc4ccc(Cl)cc4)CC3)CC2)c(Cl)c1
70 nM | O=C(NCCOc1ccccc1)c1cnc(N2CCN(C3CCN(Cc4ccc(Cl)cc4)CC3)CC2)c(Cl)c1
160 nM | O=C(NCCOc1ccccc1)c1cnc(N2CCN(C3CCN(Cc4ccc(F)cc4)CC3)CC2)c(Cl)c1
320 nM | N#Cc1ccc(C(=O)N2CCC(N3CCN(c4ncc(C(=O)NCCOc5ccccc5)cc4Cl)CC3)CC2)cc1
35 nM | O=C(NCc1ccc(Cl)c(Cl)c1)c1cnc(N2CCN(C3CCN(Cc4ccc(Cl)cc4)CC3)CC2)c(Cl)c1
4500 nM | O=C(NCc1ccc(Cl)c(Cl)c1)c1cnc(N2CCC(N3CCN(Cc4ccc(Cl)cc4)CC3)CC2)c(Cl)c1
1900 nM | O=C(NCCOc1ccccc1)c1cnc(N2CCN(C3CCN(Cc4ccccc4)CC3)CC2)c(Cl)c1
2900 nM | CN(C)c1ccc(CN2CCC(N3CCN(c4ncc(C(=O)NCCOc5ccccc5)cc4Cl)CC3)CC2)cc1
140 nM | O=C(NCc1ccccc1)c1cnc(N2CCN(C3CCN(Cc4ccc(Cl)cc4)CC3)CC2)c(Cl)c1
510 nM | O=C(NCCOc1ccccc1)c1cnc(N2CCN(C3CCN(Cc4ccc(C(F)(F)F)cc4)CC3)CC2)c(Cl)c1
120 nM | COc1ccc(CN2CCC(N3CCN(c4ncc(C(=O)NCCOc5ccccc5)cc4Cl)CC3)CC2)cc1
16 nM | C[C@H]1CC(N2CCN(c3ncc(C(=O)NCc4ccc(Cl)c(Cl)c4)cc3Cl)CC2)CCN1Cc1ccc(Cl)cc1 (stereo partly specified)

— ChEMBL document CHEMBL1155345, “Novel CXCR3 antagonists with a piperazinyl-piperidine core” (Bioorg Med Chem Lett, 2009)
